Values of other authors in US10226421B2, “Pharmaceutical composition containing budesonide and formoterol” (Zambon S.P.A., priority 2013, dated 2019).

Conditions: phospholipids in the presence of a humidity

| glass-rubber transition temperatures (Tg) [°C] | SMILES |
| --- | --- |
| 41 | CCCCCCCCCCCCCCCC(=O)OC[C@H](COP(=O)([O-])OCC[N+](C)(C)C)OC(=O)CCCCCCCCCCCCCCC [DPPC, dipalmitoyl-phosphatidylcholine] |
| 63 | CCCCCCCCCCCCCCCC(=O)OCC(COP(=O)(O)OCCN)OC(=O)CCCCCCCCCCCCCCC (stereo not drawn) [DPPE, dipalmitoyl-phosphatidylethanolamine] |
| 55 | CCCCCCCCCCCCCCCCCC(=O)OC[C@H](COP(=O)([O-])OCC[N+](C)(C)C)OC(=O)CCCCCCCCCCCCCCCCC [DSPC, distearoyl-phosphatidylcholine] |
